Measured values as given in PubChem BioAssay (NCI).
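All cell lines were grown in 96-well plates and treated with compound for 48 hours. TGI: concentration producing complete growth inhibition.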

Legend:
Experiment in all cases: inhibition of tumour cell growth, NCI panel, 48 h
HCT-15 colon = system: HCT-15 colon
SK-MEL-5 melanoma = system: SK-MEL-5 melanoma
HCT-116 colon = system: HCT-116 colon
TK-10 renal = system: TK-10 renal
HOP-18 NSCLC = system: HOP-18 NSCLC
SNB-75 CNS = system: SNB-75 CNS
NCI-H460 lung = system: NCI-H460 lung
DLD-1 colon = system: DLD-1 colon
UACC-257 melanoma = system: UACC-257 melanoma
UACC-62 melanoma = system: UACC-62 melanoma
SN12C renal = system: SN12C renal
LXFL 529 NSCLC = system: LXFL 529 NSCLC
SF-268 CNS = system: SF-268 CNS
MALME-3M melanoma = system: MALME-3M melanoma
EKVX NSCLC = system: EKVX NSCLC
OVCAR-4 ovarian = system: OVCAR-4 ovarian
NCI-H522 lung = system: NCI-H522 lung
KM20L2 colon = system: KM20L2 colon
KM12 colon = system: KM12 colon
HOP-92 NSCLC = system: HOP-92 NSCLC
A549 NSCLC = system: A549 NSCLC
M19-MEL melanoma = system: M19-MEL melanoma
NCI-H23 lung = system: NCI-H23 lung
UO-31 renal = system: UO-31 renal
SNB-19 CNS = system: SNB-19 CNS
IGROV1 ovarian = system: IGROV1 ovarian
ACHN renal = system: ACHN renal
DMS 114 small cell lung = system: DMS 114 small cell lung
SK-MEL-2 melanoma = system: SK-MEL-2 melanoma
XF 498 CNS = system: XF 498 CNS
RPMI-8226 leukemia = system: RPMI-8226 leukemia
HOP-62 NSCLC = system: HOP-62 NSCLC
SF-295 CNS = system: SF-295 CNS
HT29 colon = system: HT29 colon
COLO 205 colon = system: COLO 205 colon
K-562 leukemia = system: K-562 leukemia
SW-620 colon = system: SW-620 colon
OVCAR-8 ovarian = system: OVCAR-8 ovarian
NCI-H226 lung = system: NCI-H226 lung
SK-OV-3 ovarian = system: SK-OV-3 ovarian
RXF 393 renal = system: RXF 393 renal
U251 CNS = system: U251 CNS
786-0 renal = system: 786-0 renal
M14 melanoma = system: M14 melanoma
HL-60(TB) leukemia = system: HL-60(TB) leukemia
CAKI-1 renal = system: CAKI-1 renal
MOLT-4 leukemia = system: MOLT-4 leukemia
SR leukemia = system: SR leukemia
CCRF-CEM leukemia = system: CCRF-CEM leukemia

Cc1cc(C)c(C(=O)/C=C/c2ccccc2)c(C)c1
TGI (HCT-15 colon): 51.3 µM
TGI (SK-MEL-5 melanoma): > 100 µM
TGI (HCT-116 colon): 78.2 µM
TGI (TK-10 renal): > 100 µM
TGI (HOP-18 NSCLC): > 100 µM
TGI (SNB-75 CNS): > 100 µM
TGI (NCI-H460 lung): 39.3 µM
TGI (DLD-1 colon): 68.9 µM
TGI (UACC-257 melanoma): > 100 µM
TGI (UACC-62 melanoma): > 100 µM
TGI (SN12C renal): 34.7 µM
TGI (LXFL 529 NSCLC): > 100 µM
TGI (SF-268 CNS): 50.6 µM
TGI (MALME-3M melanoma): 83.5 µM
TGI (EKVX NSCLC): > 100 µM
TGI (OVCAR-4 ovarian): 81.6 µM
TGI (NCI-H522 lung): 46.1 µM
TGI (KM20L2 colon): 96.9 µM
TGI (KM12 colon): > 100 µM
TGI (HOP-92 NSCLC): 58.4 µM
TGI (A549 NSCLC): > 100 µM
TGI (M19-MEL melanoma): > 100 µM
TGI (NCI-H23 lung): 97.9 µM
TGI (UO-31 renal): > 100 µM
TGI (SNB-19 CNS): 75.3 µM
TGI (IGROV1 ovarian): > 100 µM
TGI (ACHN renal): > 100 µM
TGI (DMS 114 small cell lung): 88.3 µM
TGI (SK-MEL-2 melanoma): 30.8 µM
TGI (XF 498 CNS): 26.5 µM
TGI (RPMI-8226 leukemia): 90.5 µM
TGI (HOP-62 NSCLC): 76 µM
TGI (SF-295 CNS): 48.8 µM
TGI (HT29 colon): > 100 µM
TGI (COLO 205 colon): 71.3 µM
TGI (K-562 leukemia): > 100 µM
TGI (SW-620 colon): 48.1 µM
TGI (OVCAR-8 ovarian): 30 µM
TGI (NCI-H226 lung): 43.1 µM
TGI (SK-OV-3 ovarian): > 100 µM
TGI (RXF 393 renal): 34.5 µM
TGI (U251 CNS): 29.4 µM
TGI (786-0 renal): 81.6 µM
TGI (M14 melanoma): 40.3 µM
TGI (HL-60(TB) leukemia): > 100 µM
TGI (CAKI-1 renal): > 100 µM
TGI (MOLT-4 leukemia): > 100 µM
TGI (SR leukemia): > 100 µM
TGI (CCRF-CEM leukemia): > 100 µM
